Measured values reported in patent US8512723B2, “Antimicrobial compositions and methods” (3M Innovative Properties Company, priority 2003, dated 2013).

Key:
[1] = test system: MRSA #561 (clinical isolate of methicillin resistant staphylococcus); assay: Murine MRSA nasal colonization model; format: in vivo, mice; details: 10 μL per nare, three times daily for two days; nares cultured three days after treatment
Procedure: 1999 Infect and Immunity 67(10) 5001-5006. Prior to evaluation of the active compositions the lowest number of S. aureus required to establish nasal colonization in 70% of mice detectable 5 days after challenge and persisting at least 10 days after challenge was determined. This was using an innoculum of 10^8 cfu/nare. Mice (239 described as 25 g to 30 g Hsd:ICR) were challenged intranasally with 10^8 MRSA #561 (a clinical isolate of methicillin resistant staphylococcus obtained from Mayo Clinic, Rochester, Minn.) and arbitrarily assigned to one of five treatment regimens: mupirocin ointment, bland ointment, antimicrobial compositions of Examples 31, 32, and 33. The bland ointment consisted of petrolatum (89%), glycerin (10%) and DOSS (1%). Mice received either no treatment (none) or treatment with 10 μL per nare of warmed (42° C.) ointment (one of five) to each nare, three times daily for two days Three days after treatment, both anterior nares were swabbed and cultured for MRSA. Colonies appearing to be S. aureus were confirmed with a latex agglutination test. S. aureus was detected in 160 colonization cultures from 239 mice challenged. These mice continued to be studied. The results of the treatments are listed in Table 9e as the number of animals with no MRSA detected after treatment (successful), the percent of the animals treated successfully, the number of animals with MRSA (failure), and the percent of animals whose treatment failed.

30 MRSA isolates = assay: Emergence of Resistance Test; format: cell-based, Staphylococcus aureus
Procedure: (§1) Overnight cultures of each of 30 MRSA isolates and 30 Methicillin Susceptible Stapyloccus aureus (MSSA) isolates were grown in Mueller-Hinton broth (MHB) at 35° C. in room air. Bacteria in the broth were concentrated by centrifugation for 15 minutes at 2,200 revolustions per minute (rpm). The spent broth was decanted and replaced with fresh MHB containing 0.5 μL per mL of each of three antimicrobial compositions (Examples 31(IPA), 32(IPA), and 33(IPA)) or 0.125 μg/mL of mupirocin lithium salt (Sigma Aldrich, Milwaukee, Wis.). The cultures were returned to the incubator for 18 hours. Following incubation, each culture was again centrifuged and the bacterial pellet was divided into two aliquots. One aliquot was resuspended in MHB containing fresh antimicrobial compositions at twice the previous concentrations and returned to the incubator for continued exposure.
(§2) The second aliquot was screened for MRSA and MSSA by incubation with 2 mL of MHB containing 4 μg/mL of mupirocin or 1,200 μg/mL of Examples 31(IPA) or 32(IPA) or 33 (IPA). The resistance screens were incubated overnight at 35° C. in room air. After incubation, each screen was subcultured to fresh MHB and incubated for 4 to 6 hours. Minimum inhibitory concentration (MIC) testing was performed on logarithmically growing bacteria recovered from the screen. This procedure was repeated for 8 days. After 8 days of serial exposure, each bacterial pellet was resuspended in bland MHB and incubated overnight. The MIC of each antimicrobial composition or mupirocin was determined as the MIC90 (range) before and daily during serial passage.
(§3) The IPA modified antimicrobial compositions were tested using the Emergence of Resistance Test. The results are shown at baseline (T0), after eight days (T8) and the ratio of T0 to T8 in Table 9d.

[2] = test system: 30 Methicillin Susceptible Stapyloccus aureus (MSSA) isolates; assay: Emergence of Resistance Test; format: cell-based, Staphylococcus aureus
Procedure: as §1, §2, §3

[3] = MIC90 after eight days (T8) of serial exposure, unit assumed
[4] = MIC90 at baseline (T0), unit assumed

SMILES: C/C(=C\C(=O)OCCCCCCCCC(=O)O)C[C@@H]1OC[C@H](C[C@@H]2O[C@H]2[C@@H](C)[C@H](C)O)[C@@H](O)[C@H]1O [Mupirocin, mupirocin]
- Number of Mice with MRSA [1]: 19
- Number of Mice without MRSA [1]: 19
- Percent Treated Successfully [1]: 50%
- Percent Whose Treatment Failed [1]: 50%
- MRSA Final (T8) MIC (30 MRSA isolates; [3]): 64 µg/mL
- MRSA Initial (T0) MIC (30 MRSA isolates; [4]): 0.25 µg/mL
- Increase of the MIC (30 MRSA isolates; eight days of serial exposure): increased dramatically
- MSSA Final (T8) MIC [2, 3]: 128 µg/mL
- MSSA Initial (T0) MIC [2, 4]: 0.25 µg/mL
- MSSA MIC fold increase (T8/T0) ([2]; ratio of MIC at T0 and T8): 512
